The values that follow come from article PMC7762786, “The discovery of novel antitrypanosomal 4-phenyl-6-(pyridin-3-yl)pyrimidines” (European Journal of Medicinal Chemistry, 2021).

What all share (details): 10 μM, result in words
For one data set, the target named is T1, HDAC1 (Homo sapiens, UniProt Q13547).
T1 construct: purchased BPS Bioscience (San Diego, USA)
Description: Histone deacetylase assay (HDAC-Glo I/II). It is filed as biochemical. The method, then:
(§1) Cytotoxicity was also determined against 786-O and A549 cells.
(§2) Experiments for determining pre-clinical in vitro ADME-Tox activities were performed as described by Moraes et al. and also described in the following sections 4.3.2.1 to 4.3.2.4.
(§3) Inhibition of histone deacetylase (HDAC) enzymes was determined using the bioluminogenic HDAC-Glo™ I/II assay (Promega Corp.) in 384-well assay format. Human recombinant HDAC enzymes were purchased from BPS Bioscience (San Diego, USA) and the standard inhibitor trichostatin A (Sigma-Aldrich) was dissolved to a yield stock solution in 100% v/v DMSO (stored at −20 °C). Plate handling was performed using a Cell Explorer HTS platform equipped with an Echo 550® Liquid Handler and Multidrop liquid handling system with luminescence measurements taken using an EnVision® multilabel 2103 reader. Compounds were added to plates (100 nL/well; 1% v/v DMSO) and the HDAC-Glo™ I/II assay reagent was prepared by (i) rehydration of lyophilised HDAC-Glo™ I/II substrate (with an acetylated peptide concentration of 100 μM) in 10 mL HDAC-Glo™ I/II assay buffer and (ii) addition of 10 μL of developer reagent (containing trypsin). The microtiter plates were mixed briefly by orbital shaking (500–700 rpm) and luminescence was measured at steady-state signal:background which was achieved after 20 min. The raw data were normalised relative to the positive and negative controls yielding the % inhibition for each compound.

A further data set concerns the target T2, HDAC3 (Homo sapiens, UniProt O15379).
T2 construct: purchased BPS Bioscience (San Diego, USA)
Description: Histone deacetylase assay (HDAC-Glo I/II). The class given is biochemical. As to the method: as §1, §2, §3

The target in a further data set is T3, HDAC6 (Homo sapiens, UniProt Q9UBN7).
T3 construct: purchased BPS Bioscience (San Diego, USA)
T3 sequence (Q9UBN7 1-1215): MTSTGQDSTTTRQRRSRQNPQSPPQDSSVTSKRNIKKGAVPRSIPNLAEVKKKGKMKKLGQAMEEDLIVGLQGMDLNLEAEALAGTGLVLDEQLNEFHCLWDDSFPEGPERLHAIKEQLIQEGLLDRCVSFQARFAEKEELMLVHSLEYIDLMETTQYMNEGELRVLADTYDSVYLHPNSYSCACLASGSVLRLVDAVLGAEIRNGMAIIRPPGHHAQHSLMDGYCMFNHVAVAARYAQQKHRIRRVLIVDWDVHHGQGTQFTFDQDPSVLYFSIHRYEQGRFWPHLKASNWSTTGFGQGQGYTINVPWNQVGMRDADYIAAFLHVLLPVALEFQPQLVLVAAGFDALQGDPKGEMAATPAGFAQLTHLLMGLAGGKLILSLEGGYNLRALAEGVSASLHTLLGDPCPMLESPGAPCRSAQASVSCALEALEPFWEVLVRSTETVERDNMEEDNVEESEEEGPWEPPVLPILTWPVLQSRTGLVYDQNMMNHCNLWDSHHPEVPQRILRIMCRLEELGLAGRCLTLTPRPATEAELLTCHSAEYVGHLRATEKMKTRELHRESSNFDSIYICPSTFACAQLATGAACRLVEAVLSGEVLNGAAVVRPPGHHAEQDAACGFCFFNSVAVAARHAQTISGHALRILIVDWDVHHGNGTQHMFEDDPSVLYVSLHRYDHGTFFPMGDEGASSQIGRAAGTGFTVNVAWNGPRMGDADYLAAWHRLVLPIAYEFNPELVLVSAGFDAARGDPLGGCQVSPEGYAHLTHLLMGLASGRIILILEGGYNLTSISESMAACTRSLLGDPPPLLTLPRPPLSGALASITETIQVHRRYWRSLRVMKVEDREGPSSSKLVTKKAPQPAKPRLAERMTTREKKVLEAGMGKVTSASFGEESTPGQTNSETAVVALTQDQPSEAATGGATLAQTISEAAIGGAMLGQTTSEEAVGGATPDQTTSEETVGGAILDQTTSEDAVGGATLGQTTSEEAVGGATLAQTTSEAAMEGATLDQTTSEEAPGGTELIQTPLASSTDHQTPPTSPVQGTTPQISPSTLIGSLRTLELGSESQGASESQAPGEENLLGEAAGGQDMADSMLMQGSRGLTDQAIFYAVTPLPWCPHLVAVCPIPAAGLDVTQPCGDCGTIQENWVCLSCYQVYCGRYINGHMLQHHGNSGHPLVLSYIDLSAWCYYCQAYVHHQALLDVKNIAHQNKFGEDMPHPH
Put plainly: Histone deacetylase assay (HDAC-Glo I/II). The class given is biochemical. As to the method: as §1, §2, §3

The next data set has as its target T4, hERG (Homo sapiens, UniProt Q12809).
T4 construct: purchased Invitrogen
Put plainly: hERG cardiotoxicity assay (Predictor hERG Fluorescence Polarisation). The class given is binding. As to the method: as §1, §2
The Invitrogen Predictor™ hERG Fluorescence Polarisation Assay was used in 384-well assay format. […] The plates were incubated for 2 h at 25 °C in a humidity-controlled incubator and the fluorescence polarisation was measured using an EnVision® multilabel 2103 reader. […] The raw data were normalised relative to the positive and negative controls yielding the % cardiotoxicity for each compound.

T1 sequence (Q13547 whole entry): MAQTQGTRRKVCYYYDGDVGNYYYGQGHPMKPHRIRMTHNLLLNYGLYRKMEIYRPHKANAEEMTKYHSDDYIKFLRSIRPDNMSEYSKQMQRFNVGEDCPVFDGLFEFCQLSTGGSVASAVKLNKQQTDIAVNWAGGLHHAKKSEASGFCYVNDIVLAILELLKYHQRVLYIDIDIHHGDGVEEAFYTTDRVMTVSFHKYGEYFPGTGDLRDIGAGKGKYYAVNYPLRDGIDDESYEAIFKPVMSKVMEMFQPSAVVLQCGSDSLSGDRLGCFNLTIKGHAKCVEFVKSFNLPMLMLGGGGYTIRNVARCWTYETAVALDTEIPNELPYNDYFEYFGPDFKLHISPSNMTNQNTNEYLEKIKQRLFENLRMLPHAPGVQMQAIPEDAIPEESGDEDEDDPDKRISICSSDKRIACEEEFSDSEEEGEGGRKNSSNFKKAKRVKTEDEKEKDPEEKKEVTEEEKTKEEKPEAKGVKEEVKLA
T4 sequence (Q12809 whole entry): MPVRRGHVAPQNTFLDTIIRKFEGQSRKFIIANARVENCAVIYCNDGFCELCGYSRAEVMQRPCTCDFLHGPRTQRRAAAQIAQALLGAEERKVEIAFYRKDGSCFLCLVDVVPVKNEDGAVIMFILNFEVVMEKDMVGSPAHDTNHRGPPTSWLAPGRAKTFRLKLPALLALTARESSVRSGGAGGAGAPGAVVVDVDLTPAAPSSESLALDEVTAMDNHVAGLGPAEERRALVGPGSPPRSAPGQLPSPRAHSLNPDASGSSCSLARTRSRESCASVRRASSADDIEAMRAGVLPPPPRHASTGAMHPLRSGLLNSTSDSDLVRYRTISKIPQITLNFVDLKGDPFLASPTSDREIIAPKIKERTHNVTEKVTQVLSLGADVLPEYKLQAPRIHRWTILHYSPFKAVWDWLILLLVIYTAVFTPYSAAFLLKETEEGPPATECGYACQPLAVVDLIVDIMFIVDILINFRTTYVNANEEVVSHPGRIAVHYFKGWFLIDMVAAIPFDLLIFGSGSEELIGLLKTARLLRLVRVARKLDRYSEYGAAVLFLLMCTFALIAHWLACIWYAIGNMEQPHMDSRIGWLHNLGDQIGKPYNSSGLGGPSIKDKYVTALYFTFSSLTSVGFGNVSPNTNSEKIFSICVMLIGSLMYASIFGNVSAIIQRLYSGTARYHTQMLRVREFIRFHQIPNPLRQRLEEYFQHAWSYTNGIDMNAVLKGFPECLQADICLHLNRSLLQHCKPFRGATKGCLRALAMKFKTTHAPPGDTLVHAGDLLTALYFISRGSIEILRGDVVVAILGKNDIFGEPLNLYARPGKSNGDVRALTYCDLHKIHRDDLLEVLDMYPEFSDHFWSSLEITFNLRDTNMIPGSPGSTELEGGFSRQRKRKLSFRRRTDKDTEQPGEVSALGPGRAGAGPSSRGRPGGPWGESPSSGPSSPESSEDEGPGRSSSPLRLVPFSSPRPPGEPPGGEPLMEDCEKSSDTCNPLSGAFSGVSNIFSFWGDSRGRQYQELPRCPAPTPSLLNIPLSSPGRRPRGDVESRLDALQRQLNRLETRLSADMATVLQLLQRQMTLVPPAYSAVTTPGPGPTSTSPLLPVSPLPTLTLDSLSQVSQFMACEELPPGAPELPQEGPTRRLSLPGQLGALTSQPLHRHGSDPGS
T2 sequence (O15379 whole entry): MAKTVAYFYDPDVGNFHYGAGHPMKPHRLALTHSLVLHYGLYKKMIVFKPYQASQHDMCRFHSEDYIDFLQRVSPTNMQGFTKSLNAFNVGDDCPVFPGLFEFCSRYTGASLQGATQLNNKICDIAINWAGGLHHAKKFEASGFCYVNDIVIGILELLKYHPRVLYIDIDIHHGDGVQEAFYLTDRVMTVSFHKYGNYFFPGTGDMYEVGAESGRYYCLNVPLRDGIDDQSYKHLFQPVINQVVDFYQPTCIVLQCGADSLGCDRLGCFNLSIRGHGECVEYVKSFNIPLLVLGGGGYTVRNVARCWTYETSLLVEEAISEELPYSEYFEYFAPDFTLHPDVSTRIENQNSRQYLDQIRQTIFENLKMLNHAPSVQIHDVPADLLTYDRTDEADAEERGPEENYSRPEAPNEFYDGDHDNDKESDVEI
T2 sequence (Q9Y618 395-489 partner limits assumed): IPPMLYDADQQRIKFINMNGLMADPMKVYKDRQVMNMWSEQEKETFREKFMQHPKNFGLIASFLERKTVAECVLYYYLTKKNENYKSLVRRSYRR

In the case of `COc1ccccc1-c1cc(-c2cccnc2)nc(N)n1` [Compound 13, 4-(2-Methoxyphenyl)-6-(pyridin-3-yl)pyrimidin-2-amine], the HDAC1 inhibition result at HDAC1 is reported as “No inhibition”. For the same molecule, at HDAC3, the HDAC3 inhibition entry was “No inhibition”. In addition, the HDAC6 inhibition result at HDAC6 is “No inhibition”. For the same molecule, on hERG, the hERG cardiotoxicity entry is “no notable”.
